Reference: patent US10781204B2, “TYK2 inhibitors and uses thereof” (Nimbus Lakshmi, Inc., priority 2015, dated 2020)

Key:
TYK2 = TYK2 (Homo sapiens (Human), UniProt P29597); experiment: Tyk2 radioactive kinase assay; format: biochemical; settings: ATP 10 μM
How it was run: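 Recombinant human TYK2 (Invitrogen) was mixed with 20 μM peptide substrate in a buffer of 20 mM Hepes pH 7.5, 10 mM MgCl2, 1 mM EGTA, 0.02% Brij35, 0.02 mg/mL BSA, 0.1 mM […], 2 mM DTT and 1% DMSO, and compounds in DMSO were added. Adding ^33P-ATP (10 μM ATP) started the reaction, which ran 120 min at room temperature. Mixtures were then spotted onto P81 ion-exchange paper, washed thoroughly in 0.75% phosphoric acid, and counted for radioactivity.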

JAK2 = JAK2 (Homo sapiens (Human), UniProt O60674); experiment: JAK2 radioactive kinase assay; format: biochemical; settings: ATP 10 μM
JAK2, sequence (O60674 whole entry): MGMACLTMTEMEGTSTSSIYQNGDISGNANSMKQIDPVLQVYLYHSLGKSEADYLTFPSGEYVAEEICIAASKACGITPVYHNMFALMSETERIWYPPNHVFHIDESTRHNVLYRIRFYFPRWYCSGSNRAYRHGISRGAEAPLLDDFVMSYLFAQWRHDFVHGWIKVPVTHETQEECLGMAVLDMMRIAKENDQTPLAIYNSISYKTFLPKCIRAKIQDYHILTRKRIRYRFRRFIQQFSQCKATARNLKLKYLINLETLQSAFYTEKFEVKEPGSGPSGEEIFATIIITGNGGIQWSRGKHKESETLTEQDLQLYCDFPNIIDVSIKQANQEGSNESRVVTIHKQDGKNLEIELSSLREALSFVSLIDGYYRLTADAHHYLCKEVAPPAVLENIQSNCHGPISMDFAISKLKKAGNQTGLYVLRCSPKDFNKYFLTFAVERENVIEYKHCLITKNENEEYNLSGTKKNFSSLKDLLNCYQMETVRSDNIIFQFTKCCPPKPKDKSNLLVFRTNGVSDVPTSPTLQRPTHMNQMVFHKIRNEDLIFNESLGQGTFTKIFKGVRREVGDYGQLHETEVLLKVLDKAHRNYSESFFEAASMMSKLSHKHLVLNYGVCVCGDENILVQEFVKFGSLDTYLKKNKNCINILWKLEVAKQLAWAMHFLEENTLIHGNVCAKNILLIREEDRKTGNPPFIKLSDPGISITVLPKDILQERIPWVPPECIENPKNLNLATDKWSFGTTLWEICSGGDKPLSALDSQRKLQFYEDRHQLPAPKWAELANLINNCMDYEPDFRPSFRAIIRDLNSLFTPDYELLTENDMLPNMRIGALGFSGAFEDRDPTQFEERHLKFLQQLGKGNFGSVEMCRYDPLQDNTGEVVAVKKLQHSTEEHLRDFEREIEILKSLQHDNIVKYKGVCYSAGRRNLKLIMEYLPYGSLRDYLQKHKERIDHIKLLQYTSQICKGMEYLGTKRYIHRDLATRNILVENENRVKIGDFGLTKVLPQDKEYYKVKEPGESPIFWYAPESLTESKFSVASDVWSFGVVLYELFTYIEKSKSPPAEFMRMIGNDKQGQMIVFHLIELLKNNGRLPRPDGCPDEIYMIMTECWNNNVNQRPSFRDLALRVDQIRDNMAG
How it was run: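 Radiometric assay in Hepes pH 7.5, MgCl2, EGTA, Brij35, BSA, DTT, 1% DMSO, with 10 μM [33P]ATP, 120 min at room temp; P81 paper capture and counting. […]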

[1] = tested on: Tyk2-pSTAT4 (IL-12 induced pSTAT4); experiment: IL-12 induced pSTAT4 in human PBMC; format: cell-based; settings: 0.5 h, 1.7 ng/mL IL-12, 30 minutes
How it was run: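 Thawed human PBMC (200,000 cells/well, serum-containing medium) preincubated with compound 1 hr at 37 C, 0.1% DMSO final. Stimulated with 1.7 ng/mL IL-12 (final) for 30 minutes; pSTAT4 and total STAT4 in lysates measured by MSD immunoassay.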

[2] = tested on: JAK2-pSTAT5 (GM-CSF induced pSTAT5); experiment: GM-CSF induced pSTAT5 in human PBMC; format: cell-based; settings: 20 min, 5 ng/mL GM-CSF
How it was run: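 Thawed human PBMC, 200,000 per well in serum-containing medium, were preincubated 1 hr at 37 C with compound in 0.1% DMSO. GM-CSF at 5 ng/mL final was added for 20 minutes, then pSTAT5 and total STAT5 in lysates were measured by MSD immunoassay.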

TYK2, sequence (P29597 whole entry): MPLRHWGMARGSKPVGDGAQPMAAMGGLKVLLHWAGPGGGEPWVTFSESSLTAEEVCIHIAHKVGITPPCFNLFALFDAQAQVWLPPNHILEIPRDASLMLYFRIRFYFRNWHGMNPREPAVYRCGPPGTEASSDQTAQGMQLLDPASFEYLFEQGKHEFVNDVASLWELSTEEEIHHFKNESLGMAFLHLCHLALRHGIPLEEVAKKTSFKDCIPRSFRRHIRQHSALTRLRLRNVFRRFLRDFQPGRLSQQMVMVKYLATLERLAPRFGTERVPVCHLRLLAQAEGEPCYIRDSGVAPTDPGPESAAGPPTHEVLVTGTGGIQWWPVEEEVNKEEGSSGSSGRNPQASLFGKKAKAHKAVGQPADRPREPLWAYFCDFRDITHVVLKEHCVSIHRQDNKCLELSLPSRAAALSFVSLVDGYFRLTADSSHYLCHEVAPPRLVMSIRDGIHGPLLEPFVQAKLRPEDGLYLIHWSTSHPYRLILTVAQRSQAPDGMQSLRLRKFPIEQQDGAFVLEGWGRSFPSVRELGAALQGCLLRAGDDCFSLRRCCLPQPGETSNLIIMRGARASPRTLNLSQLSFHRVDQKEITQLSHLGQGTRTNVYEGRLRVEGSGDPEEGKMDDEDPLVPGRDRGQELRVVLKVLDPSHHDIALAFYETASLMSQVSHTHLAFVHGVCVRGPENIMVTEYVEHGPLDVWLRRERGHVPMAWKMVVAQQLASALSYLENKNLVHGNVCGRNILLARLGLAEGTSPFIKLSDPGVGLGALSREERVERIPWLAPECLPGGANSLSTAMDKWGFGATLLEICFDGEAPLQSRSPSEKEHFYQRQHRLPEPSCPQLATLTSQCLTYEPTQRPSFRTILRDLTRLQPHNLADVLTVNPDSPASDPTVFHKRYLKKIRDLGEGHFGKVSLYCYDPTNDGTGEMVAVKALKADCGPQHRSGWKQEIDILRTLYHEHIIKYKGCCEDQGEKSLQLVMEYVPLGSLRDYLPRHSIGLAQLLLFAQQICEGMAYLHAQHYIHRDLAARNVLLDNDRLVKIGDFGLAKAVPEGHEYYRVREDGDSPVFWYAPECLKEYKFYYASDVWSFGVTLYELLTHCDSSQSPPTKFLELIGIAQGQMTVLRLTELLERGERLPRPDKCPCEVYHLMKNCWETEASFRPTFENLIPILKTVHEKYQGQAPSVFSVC

| Compound | Ki (TYK2) | Ki (JAK2) | EC50 ([1]; Homo sapiens, PBMC) | EC50 ([2]; Homo sapiens, PBMC) | EC50 [1] | EC50 [2] |
| --- | --- | --- | --- | --- | --- | --- |
| N#Cc1cccc(F)c1-c1cc(-n2ccc(N3CCOCC3)n2)c2c(n1)CNC2=O [I-4, 3-fluoro-2-(4-(3-morpholino-1H-pyrazol-1-yl)-5-oxo-6,7-dihydro-5H-pyrrolo[3,4-b]pyridin-2-yl)benzonitrile] | 0.1 to 10 nM | 10 to 100 nM | 100 to 2000 nM | > 2000 nM |  |  |
| C[C@]1(O)CN(c2ccn(-c3cc(-c4c(F)cccc4C#N)nc4c3C(=O)NC4)n2)CC[C@H]1O [I-162, 2-(4-(3-((3S,4R)-3,4-dihydroxy-3-methylpiperidin-1-yl)-1H-pyrazol-1-yl)-5-oxo-6,7-dihydro-5H-pyrrolo[3,4-b]pyridin-2-yl)-3-fluorobenzonitrile] | 0.009 to 0.1 nM | 0.1 to 10 nM | 100 to 2000 nM | 100 to 2000 nM |  |  |
| N#Cc1cccc(F)c1-c1cc(-n2ccc(N3CCCOCC3)n2)c2c(n1)CNC2=O [I-83, 2-(4-(3-(1,4-oxazepan-4-yl)-1H-pyrazol-1-yl)-5-oxo-6,7-dihydro-5H-pyrrolo[3,4-b]pyridin-2-yl)-3-fluorobenzonitrile] | 0.1 to 10 nM | 10 to 100 nM | 100 to 2000 nM | > 2000 nM |  |  |
| N#Cc1cccc(F)c1-c1cc(-n2ccc(NCCN3CCOCC3)n2)c2c(n1)CNC2=O [I-63, 3-fluoro-2-(4-(3-((2-morpholinoethyl)amino)-1H-pyrazol-1-yl)-5-oxo-6,7-dihydro-5H-pyrrolo[3,4-b]pyridin-2-yl)benzonitrile] | 0.1 to 10 nM | 10 to 100 nM |  |  | 100 to 2000 nM | 100 to 2000 nM |
| CC(C)c1ncn(-c2cc(-c3c(F)cccc3C#N)nc3c2C(=O)NC3)n1 [I-232, 3-fluoro-2-(4-(3-isopropyl-1H-1,2,4-triazol-1-yl)-5-oxo-6,7-dihydro-5H-pyrrolo[3,4-b]pyridin-2-yl)benzonitrile] | ≥ 1000 nM | ≥ 1000 nM | > 2000 nM | 100 to 2000 nM |  |  |
| N#Cc1cccc(F)c1-c1cc(-n2ccc(N3CCOC[C@@H](O)C3)n2)c2c(n1)CNC2=O [I-131, (S)-3-fluoro-2-(4-(3-(6-hydroxy-1,4-oxazepan-4-yl)-1H-pyrazol-1-yl)-5-oxo-6,7-dihydro-5H-pyrrolo[3,4-b]pyridin-2-yl)benzonitrile] | 0.1 to 10 nM | 10 to 100 nM | 30 to 100 nM | > 2000 nM |  |  |
| [2H]C1([2H])NC(=O)c2c(-n3ccc(N4C([2H])([2H])CC(O)(C([2H])([2H])[2H])C4([2H])[2H])n3)cc(-c3c(F)cccc3C#N)nc21 (stereo not drawn) [I-200, 3-fluoro-2-(4-(3-(3-hydroxy-3-(methyl-d3)pyrrolidin-1-yl-2,2,5,5-d4)-1H-pyrazol-1-yl)-5-oxo-6,7-dihydro-5H-pyrrolo[3,4-b]pyridin-2-yl-7,7-d2)benzonitrile] | 0.1 to 10 nM | 10 to 100 nM | 30 to 100 nM | 100 to 2000 nM |  |  |
| N#Cc1cccc(F)c1-c1cc(-n2ccc(N3CCCC(C(N)=O)C3)n2)c2c(n1)CNC2=O (stereo not drawn) [I-122, 1-(1-(2-(2-cyano-6-fluorophenyl)-5-oxo-6,7-dihydro-5H-pyrrolo[3,4-b]pyridin-4-yl)-1H-pyrazol-3-yl)piperidine-3-carboxamide] | 0.1 to 10 nM | 10 to 100 nM | 100 to 2000 nM | 100 to 2000 nM |  |  |
| [2H]C([2H])([2H])O[C@H]1CN(c2ccn(-c3cc(-c4c(F)cccc4C#N)nc4c3C(=O)NC4)n2)C[C@H]1O [I-224, 3-fluoro-2-(4-(3-((3R,4S)-3-hydroxy-4-(methoxy-d3)pyrrolidin-1-yl)-1H-pyrazol-1-yl)-5-oxo-6,7-dihydro-5H-pyrrolo[3,4-b]pyridin-2-yl)benzonitrile] | 0.1 to 10 nM | 10 to 100 nM | 30 to 100 nM | 100 to 2000 nM |  |  |
